Results on 47 molecules are retold here after patent US7034056B2, “Aryl and biaryl compounds having MCH modulatory activity” (Pharmacopeia Drug Discovery, inc., priority 2001, dated 2006).

The structures appear in SMILES notation.

T1 sequence (Q99705 whole entry): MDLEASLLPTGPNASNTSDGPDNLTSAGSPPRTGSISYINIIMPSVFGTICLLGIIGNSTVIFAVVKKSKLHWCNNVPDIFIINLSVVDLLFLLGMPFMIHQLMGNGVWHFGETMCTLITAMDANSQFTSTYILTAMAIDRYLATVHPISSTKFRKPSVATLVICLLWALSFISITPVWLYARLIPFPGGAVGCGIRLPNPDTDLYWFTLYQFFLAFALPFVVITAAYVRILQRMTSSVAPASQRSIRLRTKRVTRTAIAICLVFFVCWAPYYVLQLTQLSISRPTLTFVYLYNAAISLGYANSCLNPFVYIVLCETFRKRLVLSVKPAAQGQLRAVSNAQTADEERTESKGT

The first assay has as its target T1, hMCHR (MCH receptor) (Homo sapiens, UniProt Q99705).
T1 construct: (or internally produced); host or cells: CHO (Chinese hamster ovary) cells, membrane preparation
The assay is described as follows: MCH Assay PCOP Protocol ([125I]-MCH SPA binding to hMCHR-CHO membranes).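 For Activity (Ki range): A 0.4–50 nM B 51–500 nM C 501–2500 nM.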 Conditions: [125I]-MCH 0.5 nM, hMCHR-CHO membranes; read-out: Activity (ranges of Ki values). A digest of the protocol:
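SPA binding with 10 μg hMCHR-CHO membranes and WGA-SPA beads in 25 mM HEPES pH 7.4, 10 mM NaCl, 10 mM MgCl2, 5 mM MnCl2, 0.1% BSA.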
In the case of `O=C(NCC(CCNC1CCCC1)c1ccc(Cl)cc1)Nc1ccc(Cl)c(Cl)c1` (centres unmarked) [Example 124], the Ki was in the range of 51 to 500 nM.
`CCCOC(=O)N1CCN(CCC(CNC(=O)Nc2cc(C(F)(F)F)cc(C(F)(F)F)c2)c2ccc(Cl)c(Cl)c2)CC1` (centres unmarked) [Example 146]: the Ki fell in the range of 51 to 500 nM.
On the same count and under the same terms, then `N#Cc1cccc(-c2ccc(C(CCNC3CC3)CNC(=O)Nc3ccc(F)cc3)cc2)c1` (centres unmarked) [Example 59], with 0.4 to 50 nM; and `CN(C)CCC(OC(=O)Nc1cc(Cl)cc(Cl)c1)c1ccc(-c2cccnc2)cc1` (centres unmarked) [Example 42], with 501 to 2500 nM.
The same measure, in the same setting: then `N#Cc1cccc(-c2ccc(C(CCNC3CCCC3)CNC(=O)Nc3ccc(F)c(Cl)c3)cc2)c1` (centres unmarked) [Example 75], with 0.4 to 50 nM; and `CCOC(=O)N1CCC(NCCC(CNC(=O)Nc2cc(Cl)cc(Cl)c2)c2ccc(Cl)cc2)CC1` (centres unmarked) [Example 122], with 51 to 500 nM; and `O=C(NCC(CCNC1CCCC1)c1ccc(Cl)c(Cl)c1)c1cc(C(F)(F)F)cc(C(F)(F)F)c1` (racemic) [Example 20, (R,S)-N-[4-Cyclopentylamino-2-(3,4-dichloro-phenyl)-butyl]-3,5-bis-trifluoromethyl-benzamide], with 501 to 2500 nM.
On the same count and under the same terms, then `CN(C)CCCNCCC(CNC(=O)Nc1cc(Cl)cc(Cl)c1)c1ccc(-c2cccc(OC(F)(F)F)c2)cc1` (centres unmarked) [Example 88], with 0.4 to 50 nM; and `CN(C)CCCNCCC(C)(CNC(=O)Nc1ccc(F)c([N+](=O)[O-])c1)c1ccc(Cl)c(Cl)c1` (centres unmarked) [Example 117], with 501 to 2500 nM.
For `CN(C)CCCNCCC(CNC(=O)Nc1cc(Cl)cc(Cl)c1)c1ccc(-c2ccc(C#N)cc2)cc1` (centres unmarked) [Example 98], the Ki is 51 to 500 nM.
`O=C(NCC(CCNC1CCCC1)c1cccc(-c2ccc3c(c2)OCO3)c1)Nc1cc(Cl)cc(Cl)c1` (centres unmarked) [Example 147]: the Ki was in the range of 51 to 500 nM.
The same measure, in the same setting: then `O=C(NCC(CCNC1CCCC1)c1ccc(Cl)cc1)Nc1cccc(Cl)c1` (centres unmarked) [Example 139], with 501 to 2500 nM; and `CN(C)CCCNCCC(CNC(=O)Nc1ccc(Cl)c([N+](=O)[O-])c1)c1ccc2c(c1)OCO2` (centres unmarked) [Example 120], with 501 to 2500 nM; and `Cc1ccc(C(CCNC2CCCC2)CNC(=O)Nc2cccc(Cl)c2)cc1` (centres unmarked) [Example 142], with 501 to 2500 nM.
Still for that read-out and setting: as for `O=S(=O)(NCC(CCNC1CCCC1)c1ccc(Cl)c(Cl)c1)c1ccc(Cl)c(Cl)c1` (racemic) [Example 21, (R,S)-3,4-Dichloro-N-[4-cyclopentylamino-2-(3,4-dichloro-phenyl)-butyl]-benzenesulfonamide], the figure is 501 to 2500 nM; as for `O=C(NCC(CCNC1CCCC1)c1ccc(-c2c(F)cccc2F)cc1)Nc1cc(Cl)cc(Cl)c1` (centres unmarked) [Example 100], 51 to 500 nM; as for `CN(C)CCCNCCC(CNC(=O)Nc1cc(Cl)cc(Cl)c1)c1cccc(-c2ccc(Cl)c(Cl)c2)c1` (centres unmarked) [Example 167], 501 to 2500 nM.
Same read-out and setting: then `CC(=O)Nc1cccc(-c2cccc(C(CCNCCCN(C)C)CNC(=O)Nc3cc(Cl)cc(Cl)c3)c2)c1` (centres unmarked) [Example 168], with 501 to 2500 nM.
In the case of `CC(CCNC1CCCC1)(CNC(=O)Nc1ccc(F)c(F)c1)c1ccc(Cl)c(Cl)c1` (centres unmarked) [Example 114], the Ki lay within 501 to 2500 nM.

The assay is the same for the next values; noted with them: [125I]-MCH SPA binding, hMCHR-CHO membranes; Ki class ranges; read-out: Activity (range of Ki).
With `O=C(NCC(CCNC1c2ccccc2CC1O)c1ccc(Cl)c(Cl)c1)c1cc(C(F)(F)F)cc(C(F)(F)F)c1` (centres unmarked) [Example 420], the Ki lay in the range of 501 to 2500 nM.
Still for that read-out and setting: as for `O=C(NCC(CCN1CCCCC1)c1ccc(Cl)c(Cl)c1)c1cccc(C(F)(F)F)c1` (centres unmarked) [Example 449], the figure is 501 to 2500 nM; as for `COc1ccc2c(CCNCCC(CNC(=O)Nc3cc(C(F)(F)F)cc(C(F)(F)F)c3)c3ccc(Cl)c(Cl)c3)c[nH]c2c1` (centres unmarked) [Example 437], 501 to 2500 nM; as for `O=C(NCC(CCN1CCCC1CN1CCCC1)c1ccc(Cl)c(Cl)c1)c1cc(C(F)(F)F)cc(C(F)(F)F)c1` (centres unmarked) [Example 418], 501 to 2500 nM.
Consider `Cc1ccc(C(CCN2CCCCC2)CNC(=O)c2cc(C(F)(F)F)cc(C(F)(F)F)c2)cc1` (centres unmarked) [Example 454], for which the Ki lay in the range of 501 to 2500 nM.

Still in this assay, the particulars now being: [125I]-MCH binding to hMCHR-CHO membranes; class symbols for ranges of Ki; read-out: Activity (Ki range).
In the case of `CN(CCC(CNC(=O)c1cc(C(F)(F)F)cc(C(F)(F)F)c1)c1ccc(Cl)c(Cl)c1)CC(=O)O` (centres unmarked) [Example 393], the inhibition constant (Ki) lay in the range of 501 to 2500 nM.
The same measure, in the same setting: then `O=C(NCC(CCNCCc1ccc(O)cc1)c1ccc(Cl)c(Cl)c1)c1cc(C(F)(F)F)cc(C(F)(F)F)c1` (centres unmarked) [Example 392], with 51 to 500 nM; and `CN(C)CCCNCCC(CNC(=O)Nc1cc(Cl)cc(Cl)c1)c1ccc(-c2cccs2)cc1` (centres unmarked) [Example 231], with 51 to 500 nM.
As to `COc1ccc(C(CCNCCc2c[nH]c3ccccc23)CNC(=O)Nc2cc(C(F)(F)F)cc(C(F)(F)F)c2)cc1` (centres unmarked) [Example 331], the inhibition constant Ki lay within 51 to 500 nM.
Turning to `O=C(NCC(CCN1CCC(N2CCCCC2)CC1)c1ccc(Cl)c(Cl)c1)Nc1ccc(F)cc1` (centres unmarked) [Example 374], the Ki lay in the range of 501 to 2500 nM.
`COc1cc(CNCCC(CNC(=O)Nc2ccc(Cl)c(Cl)c2)c2ccc(Cl)c(Cl)c2)cc(OC)c1OC` (centres unmarked) [Example 259]: the Ki fell in the range of 51 to 500 nM.
Still for that read-out and setting: as for `Cc1ccc(C(CCNC2CCC2)CNC(=O)Nc2cc(C(F)(F)F)cc(C(F)(F)F)c2)cc1` (centres unmarked) [Example 274], the figure is 51 to 500 nM; as for `CCNC(=O)NC1CCN(CCC(CNC(=O)Nc2cc(Cl)cc(Cl)c2)c2ccc(Cl)cc2)C1` (centres unmarked) [Example 321], 501 to 2500 nM.
On the same count and under the same terms, as for `O=C(NCC(CCNC1CCC1)c1ccc(Cl)c(Cl)c1)Nc1cc(C(F)(F)F)cc(C(F)(F)F)c1` (centres unmarked) [Example 314], the figure is 51 to 500 nM.
Same read-out and setting: as for `O=S(=O)(NCC(CCN1CCCC1)c1cccc(Cl)c1)c1ccc(Cl)c(Cl)c1` (centres unmarked) [Example 349], the figure is 501 to 2500 nM.
Consider `Cc1ccc(C(CCNC2CCCC2)CNC(=O)Nc2cc(C(F)(F)F)cc(C(F)(F)F)c2)cc1` (centres unmarked) [Example 269], for which the Ki was in the range of 51 to 500 nM.
Same read-out and setting: then `CCOC(=O)N1CCC(NCCC(CNC(=O)Nc2ccc(F)c(F)c2)c2ccc(Cl)c(Cl)c2)CC1` (centres unmarked) [Example 262], with 51 to 500 nM.
Same read-out and setting: then `CN(C)CCCNCCC(CNC(=O)Nc1cc(Cl)cc(Cl)c1)c1ccc(-c2cccc(Cl)c2)cc1` (centres unmarked) [Example 221], with 0.4 to 50 nM; and `CCCN(CC)CCC(CNC(=O)Nc1cccc(C(F)(F)F)c1)c1ccc(Cl)c(Cl)c1` (centres unmarked) [Example 288], with 51 to 500 nM; and `Cn1cnc(CCNCCC(CNC(=O)Nc2cc(C(F)(F)F)cc(C(F)(F)F)c2)c2ccc(Cl)c(Cl)c2)c1` (centres unmarked) [Example 367], with 501 to 2500 nM.
Same read-out and setting: as for `O=C(NCC(CCNC1CCCC1)c1ccc(Cl)c(Cl)c1)Nc1cccc(C(F)(F)F)c1` (centres unmarked) [Example 290], the figure is 51 to 500 nM; as for `CCNC(=O)NC1CCN(CCC(CNC(=O)Nc2cc(Cl)cc(Cl)c2)c2ccc(C)cc2)CC1` (centres unmarked) [Example 327], 501 to 2500 nM; as for `O=C(NCC(CCNCc1ccc2c(c1)OCO2)c1ccc(Cl)c(Cl)c1)Nc1ccc(Cl)c(Cl)c1` (centres unmarked) [Example 296], 501 to 2500 nM.
For `O=C(NCC(CCNCc1ccc2c(c1)OCO2)c1ccc(Cl)c(Cl)c1)Nc1cc(C(F)(F)F)cc(C(F)(F)F)c1` (centres unmarked) [Example 319], the Ki fell in the range of 501 to 2500 nM.
Same read-out and setting: then `Cc1cc(C)cc(NC(=O)NCC(CCN2CCC(N3CCCCC3)CC2)c2ccc(Cl)c(Cl)c2)c1` (centres unmarked) [Example 377], with 501 to 2500 nM; and `CN(C)CCCNCCC(CNC(=O)Nc1cc(C(F)(F)F)cc(C(F)(F)F)c1)c1ccc(Cl)cc1` (centres unmarked) [Example 337], with 501 to 2500 nM.
Same read-out and setting: then `CN(C)C1CCN(CCC(CNC(=O)Nc2ccc(Cl)c(Cl)c2)c2ccc(Cl)c(Cl)c2)C1` (centres unmarked) [Example 291], with 51 to 500 nM; and `O=C(NCC(CCNCc1ccc2c(c1)OCO2)c1ccc(Cl)c(Cl)c1)Nc1ccc(F)c(Cl)c1` (centres unmarked) [Example 261], with 51 to 500 nM.
